In the supplement of paper PMC11616607:

Experiments:
Assay in all cases: drug sensitivity score (DSS) from 5-point dose-response viability curve (DSS (area-under-curve based score)); higher = more sensitive (stronger growth inhibition or killing); extreme values may be limits of the assay
Settings in all cases: exposure time: 72 h; concentration range: 5 concentrations over 10,000-fold range
CAOV3 = system: CAOV3
Summary of the method: (§1)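 Drugs in DMSO or water were acoustically dispensed (Echo 550) into 384-well plates at five concentrations across a 10,000-fold range. Ovarian cancer and normal ovarian cells (1,500 per well) were then added, incubated for 3 days at 37°C with 5% CO2, and read for viability by CellTiter-Glo luminescence on a PHERAstar FS. From these readings, Breeze software derived a drug sensitivity score per cell line and drug, with higher values meaning more sensitive and zero meaning no response.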

HOSE1C = system: HOSE1C
Summary of the method: as §1

OV90 = system: OV90
Summary of the method: as §1

Ovsaho = system: Ovsaho
Summary of the method: as §1

COV362 = system: COV362
Summary of the method: as §1

OVCAR8 = system: OVCAR8
Summary of the method: as §1

HOSE2C = system: HOSE2C
Summary of the method: as §1

Kuramochi = system: Kuramochi
Summary of the method: as §1

COV318 = system: COV318
Summary of the method: as §1

OVCAR5 = system: OVCAR5
Summary of the method: as §1

JHOS2 = system: JHOS2
Summary of the method: as §1

OVCAR4 = system: OVCAR4
Summary of the method: as §1

Row | SMILES | drug sensitivity score (CAOV3) | drug sensitivity score (HOSE1C) | drug sensitivity score (OV90) | drug sensitivity score (Ovsaho) | drug sensitivity score (COV362) | drug sensitivity score (OVCAR8) | drug sensitivity score (HOSE2C) | drug sensitivity score (Kuramochi) | drug sensitivity score (COV318) | drug sensitivity score (OVCAR5) | drug sensitivity score (JHOS2) | drug sensitivity score (OVCAR4)
1 | COCCNCc1ccc(-c2cc3nccc(Oc4ccc(NC(=O)C5(C(=O)Nc6ccc(F)cc6)CC5)cc4F)c3s2)nc1 [Sitravatinib] | 1.9 | 2.6 | 1.6 | 0 | 2.3 | 0.5 | 3.3 | 2.5 | 0.5 | 4.5 | 1.2 | 0.7
2 | Cc1c(C(=O)Nc2ccc(N3C[C@@H](C)O[C@@H](C)C3)nc2)cccc1-c1ccc(OC(F)(F)F)cc1 [Sonidegib] | 0 | 1.6 | 1.3 | 2.5 | 0 | 3.3 | 1.8 | 4.7 | 2.6 | 1.2 | 2.2 | 0.2
3 | C=CCN(/C=C1/C(=O)O[C@H](COC)[C@@]2(C)C1=C(O)C(=O)C1=C2[C@H](OC(C)=O)C[C@]2(C)C(=O)CC[C@@H]12)CC=C [Sonolisib] | 0 | 0 | 0 | 0 | 0 | 0 | 0.6 | 0 | 0 | 0 | 0 | 0
4 | CNC(=O)c1cc(Oc2ccc(NC(=O)Nc3ccc(Cl)c(C(F)(F)F)c3)cc2)ccn1 [Sorafenib] | 0 | 0 | 0 | 0 | 0 | 0 | 0 | 0 | 0 | 0 | 0 | 0
5 | CN1CCN(c2nc(C3=C(c4c[nH]c5ccccc45)C(=O)NC3=O)c3ccccc3n2)CC1 [Sotrastaurin] | 1.2 | 0 | 0 | 0 | 1.5 | 0.1 | 0 | 0 | 0 | 0 | 0.2 | 0
6 | C=CC(=O)Nc1cccc(Nc2nc(Nc3ccc(OCCOC)cc3)ncc2F)c1 [Spebrutinib] | 0.3 | 0 | 1.3 | 2.2 | 0.9 | 0 | 0.4 | 1.6 | 2 | 1.2 | 1.9 | 2
7 | CC(C)n1cnc2c(NCCc3ccc(O)cc3)nc(-c3csc4ccccc34)nc21 [StemRegenin 1] | 0 | 3.8 | 1.2 | 1.8 | 2 | 1.6 | 2.2 | 1.3 | 1.1 | 4.2 | 1 | 1.1
8 | CCN(CC)CCNC(=O)c1c(C)[nH]c(/C=C2\C(=O)Nc3ccc(F)cc32)c1C [Sunitinib] | 0 | 0 | 0 | 0 | 0 | 0 | 0 | 0 | 0 | 0 | 0.1 | 0
